Experimental data: PubChem BioAssay (NCI)
Values joined by “and” are separate entries in the source; they are usually repeats but may differ in a detail not shown here. Identical values can stand only once.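 Compound exposure: 48 hours, 5 concentrations, 96-well plates. Here, GI50 denotes the concentration required for 50% inhibition of growth. TGI: concentration producing complete growth inhibition.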

Legend:
Experiment in all cases: NCI tumour cell line growth inhibition, 48 h
[1] = test system: HOP-62 NSCLC
[2] = test system: HT29 colon
[3] = test system: KM12 colon
[4] = test system: M14 melanoma
[5] = test system: NCI-H460 lung
[6] = test system: NCI-H522 lung
[7] = test system: SF-539 CNS
[8] = test system: SK-OV-3 ovarian
[9] = test system: SW-620 colon
[10] = test system: T-47D breast

Row | Compound | TGI [1] [µM] | TGI [2] [µM] | TGI [3] [µM] | TGI [4] [µM] | TGI [5] [µM] | TGI [6] [µM] | TGI [7] [µM] | TGI [8] [µM] | TGI [9] [µM] | GI50 [1] [µM] | GI50 [3] [µM] | GI50 [4] [µM] | GI50 [5] [µM] | GI50 [6] [µM] | GI50 [7] [µM] | GI50 [8] [µM] | GI50 [9] [µM] | GI50 [10] [µM] | TGI [10] [µM] | GI50 [2]
1 | O=[N+]([O-])c1ccccc1S(=O)c1ccccc1 (configuration not stated) | > 100 | > 100 | > 100 | > 100 | > 100 | > 100 | > 100 | > 100 | > 100 |  |  |  |  |  |  |  |  |  |  | 
2 | COc1cc2c(cc1O)[C@H](C)C(c1ccc(Cl)cc1)O2 (some centres not stated) | 68.2 | > 100 | 62.1 | 55.1 | 33.4 | 27.3 | > 100 | > 100 | 38 |  |  |  |  |  |  |  |  |  |  | 
3 | COc1ccc(C(CC(=O)c2ccccc2)C(C(=O)c2ccccc2)C(c2ccc(OC)cc2)C2C(=O)NC(=O)NC2=O)cc1 (configuration not stated) | 66.6 |  | > 100 | 60.8 | > 100 | 72.6 | 63.2 | > 100 | > 100 | 26.3 | 19.1 | 19.8 | 7.14 | 16.2 | 17.8 | > 100 | 26.3 | 21.6 | > 100 | 
4 | Nc1nc2ncn(CCO)c2c(=O)[nH]1 | > 100 | > 100 |  |  | > 100 |  | > 100 | > 100 | > 100 |  |  |  |  |  |  |  |  |  |  | 
5 | CN(C)CCC1(C2=CCCC2)CC/C(=C\c2ccc3c(c2)OCO3)C1=O (configuration not stated) |  | 25.2 | 31.8 | 28.3 | 36.2 |  | 30.2 |  | 29.9 |  |  |  |  |  |  |  |  |  |  | 
6 | Cc1oc2ccccc2c(=O)c1Cn1nnc2ccccc21 | > 100 | > 100 | > 100 | > 100 | > 100 |  | > 100 | > 100 | > 100 |  |  |  |  |  |  |  |  |  | 44.2 | 
7 | O=S(=O)(Nc1ccc(-c2nc(-c3cccc(OCCN4CCOCC4)c3)c(-c3ccnc(Br)c3)[nH]2)cc1)c1ccccc1 | 57.3 |  | > 100 | 5.55 | > 100 | > 100 | > 100 | > 100 | > 100 | 3.5 | 3.21 | 2.09 | 3.45 | 3.14 | 3.68 | 3.81 | 3.53 | 2.86 | 28.6 | 
8 | COc1ccc(CNc2cc(OC)cc(OC)c2)cc1 | > 100 | > 100 | > 100 | > 100 | > 100 | > 100 | > 100 | > 100 | > 100 |  |  |  |  |  | > 90.2 |  |  |  |  | > 73.8 µM and 35 µM
9 | CN(C)CCNC(=O)c1ccc2ccc3cccnc3c2n1 | 63.1 | > 100 | 95.6 | 33.1 | 35.9 | 25.5 | 33.7 | > 100 | > 100 |  |  |  |  |  |  |  |  |  |  | 
10 | O=c1cc2n(c(=O)[nH]1)C1OC(C(O)C1O)[C@@H]2CCO (some centres not stated) | > 100 | > 100 | > 100 | > 100 | > 100 | > 100 | > 100 | > 100 | > 100 |  |  |  |  |  |  |  |  |  |  | 
11 | CS(=O)(=O)NNS(=O)(=O)c1ccc(Br)cc1 | > 100 | > 100 |  | > 100 | > 100 | > 100 | > 100 | > 100 | > 100 |  |  |  |  |  |  |  |  |  |  | 
12 | O=CC1=CCCC2(C1)OCCO2 | > 100 | > 100 | > 100 | > 100 | > 100 | > 100 | > 100 | > 100 | > 100 |  |  |  |  |  |  |  |  |  |  | 
13 | CC(=O)O[C@]1(C(C)=O)CC[C@H]2[C@@H]3C[C@H](C)C4=CC(=O)C=C[C@]4(C)[C@@]3(F)[C@@H](O)C[C@@]21C | > 100 | > 100 | > 100 | > 100 | > 100 | > 100 | > 100 | 51 | > 100 |  |  |  |  |  |  |  |  |  |  | 
14 | CC1=CC[C@@H]2[C@@H](CC[C@@]2(C)O)C(C)(C)[C@H]1CC[C@@H]1[C@@]2(C)CCC(=O)C(C)(C)O[C@@H]2CC[C@]1(C)O | > 100 |  | 29.6 | 59.3 | 35.8 | 38.9 | 36.5 | > 100 | > 100 |  |  |  |  |  |  |  |  |  | > 100 | 
15 | O=c1/c(=C/c2cccc3ccccc23)sc2nc3ccccc3n12 | > 100 | > 100 | > 100 | > 100 | > 100 | > 100 | > 100 |  | > 100 |  |  |  |  |  |  |  |  |  |  | 
16 | O=C1OCC(c2ccc(O)c(O)c2)=C1c1cc(O)c(O)c(O)c1 | 33.3 | 98.2 | 55.6 | 69.7 | > 100 | > 100 | 47.9 |  | 42.8 | 18.5 | 23.8 | 23.9 | 35.3 | 47.4 | 22.8 |  | 21.1 | 23.2 | 60.2 | 32.5 µM
17 | N=C(N)/N=C(/C=C/c1ccccc1)CC1OC(=O)c2ccccc21 (configuration not stated) | > 100 | > 100 | > 100 | > 100 | > 100 | > 100 | > 100 |  | > 100 |  |  |  |  |  |  |  |  |  |  | 
18 | COc1ccc(CC(=O)c2cc(OC)c(OC)cc2C)cc1OC | > 100 | > 100 | > 100 | > 100 | > 100 | > 100 |  | > 100 | > 100 |  |  |  |  |  |  |  |  |  |  | 
19 | Cc1cccc(C)c1NC(=O)CCC(=O)NNC(=O)c1cc(O)c2ccccc2c1 | > 100 | > 100 | > 100 | > 100 | > 100 | 82.3 | 78.2 | > 100 | > 100 |  |  |  |  |  |  |  |  |  |  | 
20 | N#C/C(=C\c1ccc(CP(=O)(O)O)cc1)C(N)=O | > 100 | > 100 | > 100 | > 100 | > 100 | > 100 | > 100 | > 100 | > 100 |  |  |  |  |  |  |  |  |  |  | 
21 | CCCCCCC1CCC2CCCC(C)N12 (configuration not stated) | > 100 | > 10 | > 100 | 76.9 | 59.8 | > 100 | > 100 |  | 31.1 |  |  |  |  |  |  |  |  |  |  | 
